# Experimental data from patent EP4813992A1, “POLYARYL DERIVATIVE AND USE THEREOF” (Hangzhou HealZen Therapeutics Co., Ltd., priority 2023, dated 2025).
# Assays:
# HPK1 kinase [1] = target: T1, HPK1 kinase (Homo sapiens, UniProt Q92918); experiment: Lantha screen assay, inhibitory effect on HPK1 kinase; assay type: biochemical; conditions: initial compound concentration 1 µM
# How it was run: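 Kinase pre-incubated with compound for 10 min at room temperature in 50 mM HEPES pH 7.5, 10 mM MgCl2, 4 mM DTT, 0.01% Tween-20, 0.01% BSA. Fluorescein-PKC substrate plus ATP then added for 90 min, stopped with antibody/EDTA for 60 min. Top concentration 1 µM; IC50 from four-parameter fit of inhibition vs log concentration.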
# HPK1 kinase [2] = target: T1, HPK1 kinase; experiment: Activity of degrading HPK1 in Jurkat cells (Western blot, 24 h); assay type: cell-based; parameters: endogenous in cells; host or cells: Jurkat; conditions: HPK1 protein degradation
# Procedure: The adjusted samples are added to 5*loading buffer, boiled at 100°C for 10 minutes, and then the samples are loaded after the temperature is returned to room temperature. • 4) Detection of samples: Electrophoresis is performed using 10% SDS-PAGE with a sample loading volume of 8 µL/well. After the membrane transfer is completed, the samples are blocked with 5% BSA at room temperature for 1 h. After the residual blocking solution is washed away with TBST, HPK1 and GAPDH antibodies are added for incubation overnight at 4°C. Washing is performed 3 more times with TBST on a shaker, 10 minutes each time. After washing is completed, the secondary antibody is added for incubation at room temperature for 1 hour; then, washing is performed 3 more times with TBST on a shaker, 10 minutes each time; finally, ECL exposure solution is used to develop and image the bands to detect changes in HPK1 protein.
# HPK1/GLK = experiment: Selectivity of degrading HPK1/GLK in Jurkat cells (Western blot, 24 h); assay type: cell-based; conditions: HPK1/GLK Fold = DC50 (HPK1) / DC50 (GLK)
# Procedure: • 1) Cell plating: Cells are resuscitated, Jurkat cell lines in good growth condition are selected, and cells in the logarithmic growth phase are collected and counted; cell suspensions are seeded into 12 or 24-well plates (20W/well) and incubated overnight at 37°C in a 5% CO2 incubator. • 2) Preparation of compounds to be tested: The compounds to be tested are serially diluted with DMSO according to the experimental requirements and added to the corresponding cell wells, to be incubated at 37°C in a 5% CO2 incubator for 24 h. • 3) Preparation of samples: After the reaction of the compound to be tested is completed, the cells are collected in 1.5 mL EP tubes, and centrifuged at 1500 rpm for 5 min; after the supernatant is discarded, the cells are washed once with PBS, and the BCA protein is quantified and the concentration is adjusted. The adjusted samples are added to 5*loading buffer, boiled at 100°C for 10 minutes, and then the samples are loaded after the temperature is returned to room temperature. • 4) Detection of samples: Electrophoresis is performed using 10% SDS-PAGE with a sample loading volume of 10 µL/well. After the membrane transfer is completed, the samples are blocked with 5% skim milk at room temperature for 1 h. After the residual blocking solution is washed away with TBST, HPK1 and GLK antibodies are added for incubation overnight at 4°C. Washing is performed 3 more times with TBST on a shaker, 5 minutes each time. After washing is completed, the secondary antibody is added for incubation at room temperature in a shaker for 1 hour; then, washing is performed 3 more times with TBST on a shaker, 5 minutes each time; finally, the membrane is soaked in TBST and then subjected to chemiluminescence development. • 5) Data Processing: After the PVDF membrane is developed, the data are exported and plotted using Imang J, and the gray values of the protein bands are analyzed using Image J software; the DC50 curve is fitted using Graphpad Prism 9 software to obtain the results of the selectivity of the compound in degrading HPK1/GLK: HPK1/GLK Fold = DC50 (HPK1) / DC50 (GLK) . Table 3 Selectivity of the compounds of the invention in degrading HPK1/GLK
# [3] = Pharmacokinetic properties in SD rats after gavage; assay type: in vivo; conditions: rat, po, 10 mg/kg, plasma
# Procedure: The test compound is administered to SD rats by gavage at a dose of 10 mg/kg. Blood samples are collected at 0 h (before administration) and at 0.083, 0.25, 1, 2, 4, 6, 8, and 24 h after oral gavage administration. The samples are placed in anticoagulant tubes containing heparin sodium, and the mixture is thoroughly vortexed and centrifuged at 6000 rpm for 3 minutes. Plasma concentrations are determined by LC-MS/MS, and relevant pharmacokinetic parameters are calculated using Phoenix WinNonlin 8.2.0 pharmacokinetic software. Table 4 Pharmacokinetic properties of the compounds of the invention
# T1 sequence (Q92918 whole entry): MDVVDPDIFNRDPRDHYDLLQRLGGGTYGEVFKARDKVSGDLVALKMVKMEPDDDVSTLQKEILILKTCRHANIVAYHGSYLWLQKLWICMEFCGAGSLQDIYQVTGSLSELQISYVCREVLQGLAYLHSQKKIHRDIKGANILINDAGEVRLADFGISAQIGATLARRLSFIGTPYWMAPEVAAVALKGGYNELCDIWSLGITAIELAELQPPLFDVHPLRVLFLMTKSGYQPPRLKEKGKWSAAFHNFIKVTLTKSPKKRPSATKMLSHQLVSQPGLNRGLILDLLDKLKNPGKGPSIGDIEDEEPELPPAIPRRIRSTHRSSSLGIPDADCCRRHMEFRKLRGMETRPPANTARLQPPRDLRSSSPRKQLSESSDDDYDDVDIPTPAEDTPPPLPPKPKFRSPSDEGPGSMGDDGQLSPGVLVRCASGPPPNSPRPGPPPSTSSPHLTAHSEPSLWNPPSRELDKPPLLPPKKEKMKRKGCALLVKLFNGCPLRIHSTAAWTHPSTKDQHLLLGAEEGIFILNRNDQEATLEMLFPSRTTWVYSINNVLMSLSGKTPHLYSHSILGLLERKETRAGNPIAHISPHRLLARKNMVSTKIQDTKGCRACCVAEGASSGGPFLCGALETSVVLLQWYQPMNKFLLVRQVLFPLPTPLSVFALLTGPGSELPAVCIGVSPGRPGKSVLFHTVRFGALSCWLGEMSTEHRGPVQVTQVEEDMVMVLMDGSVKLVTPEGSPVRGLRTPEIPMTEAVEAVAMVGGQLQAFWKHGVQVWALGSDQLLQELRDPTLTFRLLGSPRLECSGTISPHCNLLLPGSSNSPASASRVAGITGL
Compound,IC50 (HPK1 kinase [1]),DC50 (HPK1 kinase [2]; class symbols),HPK1/GLK Fold (HPK1/GLK),AUC [3],DC50 (HPK1 kinase [2]; numeric values)
Cc1cc(-c2cnc3[nH]cc(-n4cc(CC(F)(F)F)cn4)c3n2)cc(C)c1C1=CCN(CC2CN(c3ccc(N4CCC(=O)NC4=O)c(F)c3)C2)CC1 [compound 162],< 10 nM,< 10 nM,++++ (1000≤Fold),–,–
Cc1cc(-c2cnc3[nH]cc(-n4cc(F)cn4)c3n2)cc(C)c1C1=CCN(CC2CN(c3ccc(N4CCC(=O)NC4=O)c(F)c3)C2)CC1 [compound 163],< 10 nM,< 10 nM,++++ (1000≤Fold),–,–
Cc1cc(N2CC(CN3CC=C(c4c(C)cc(-c5cnc6[nH]cc(-c7ccc8c(c7)CCN(C)C8=O)c6c5)cc4C)CC3)C2)ccc1N1CCC(=O)NC1=O [compound 099],< 10 nM,< 10 nM,++++ (1000≤Fold),–,–
Cc1cc(N2CCC(CN3CC=C(c4c(C)cc(-c5cnc6[nH]cc(-c7ccc(C(=O)N(C)C)cc7)c6n5)cc4C)CC3)CC2)ccc1N1CCC(=O)NC1=O [compound 113],< 10 nM,< 10 nM,++++ (1000≤Fold),–,–
Cc1cc(-c2cnc3[nH]cc(-c4ccc(C(=O)N(C)C)cc4)c3n2)cc(C)c1C1=CCN(C2CN(c3ccc(C(=O)NC4CCC(=O)NC4=O)cn3)C2)CC1 (stereo not shown) [compound 011],< 10 nM,–,++++ (1000≤Fold),8990 ng·h/mL,–
Cc1cc(-c2cnc3[nH]cc(-c4ccc(C(=O)N5CC6(COC6)C5)cc4)c3n2)cc(C)c1C1=CCN(CC2CN(c3ccc(N4CCC(=O)NC4=O)c(F)c3)C2)CC1 [compound 105],< 10 nM,< 10 nM,++++ (1000≤Fold),–,–
Cc1cc(-c2cnc3[nH]cc(-c4ccc(C(=O)N(C)C)cc4)c3n2)cc(C)c1C1=CCN(C2CN(c3ccc(C(=O)NC4CCC(=O)NC4=O)nc3)C2)CC1 (stereo not shown) [compound 012],< 10 nM,–,++++ (1000≤Fold),–,–
Cc1cc(-c2cnc3[nH]cc(-c4cnc5cc(F)ccn45)c3n2)cc(C)c1C1=CCN(CC2CN(c3ccc(N4CCC(=O)NC4=O)c(F)c3)C2)CC1 [compound 167],< 10 nM,< 10 nM,++++ (1000≤Fold),–,–
Cc1cc(-c2cnc3[nH]cc(-c4ccc(C(=O)N(C)CC(C)O)cc4)c3n2)cc(C)c1C1=CCN(CC2CN(c3ccc(N4CCC(=O)NC4=O)c(F)c3)C2)CC1 (stereo not shown) [compound 107],< 10 nM,–,++++ (1000≤Fold),–,–
Cc1cc(N2CC(CN3CC=C(c4ccc(-c5cnc6[nH]cc(-c7ccc(C(=O)N(C)C)cc7)c6c5)cc4C(C)C)CC3)C2)ccc1N1CCC(=O)NC1=O [compound 129],< 10 nM,< 10 nM,++++ (1000≤Fold),–,–
"O=C1CCN(c2cc(C(=O)N3CCC(CC4CCN(c5ccc(-c6cnc7[nH]cc(-c8cnn(CC(F)(F)F)c8)c7n6)cn5)CC4)CC3)ccc2Cl)C(=O)N1 [Compound a, reference compound]",–,–,–,3850 ng·h/mL,–
Cc1cc(-c2cnc3[nH]cc(-c4ccc(C(=O)N(C)C)cc4)c3n2)cc(C)c1C1=CCN(CC2CN(c3ccc(OC4CCC(=O)NC4=O)cn3)C2)CC1 (stereo not shown) [compound 086],< 10 nM,–,++++ (1000≤Fold),8500 ng·h/mL,–
Cc1cc(-c2cnc3[nH]cc(-c4ccc(C(=O)N(C)C)cc4)c3n2)cc(C)c1C1=CCN(CC2CCN(c3ccc(NC4CCC(=O)NC4=O)cc3F)CC2)CC1 (stereo not shown) [compound 018],< 10 nM,< 10 nM,++++ (1000≤Fold),–,–
Cc1cc(-c2cnc3[nH]cc(-c4ccc(C(=O)N(C)C)cc4)c3n2)cc(C)c1C1=CCN(CC2CN(c3ccc(C(=O)NC4CCC(=O)NC4=O)cc3)C2)CC1 (stereo not shown) [compound 081],< 10 nM,< 10 nM,++++ (1000≤Fold),–,–
Cc1cc(-c2cnc3[nH]cc(-c4cncc5c4ncn5C)c3n2)cc(C)c1C1=CCN(CC2CN(c3cc(F)c(C4CCC(=O)NC4=O)c(F)c3)C2)CC1 (stereo not shown) [compound 057],< 10 nM,–,++++ (1000≤Fold),11300 ng·h/mL,–
Cc1cc(-c2cnc3[nH]cc(-c4cnc(C(F)(F)F)s4)c3n2)cc(C)c1C1=CCN(CC2CN(c3ccc(N4CCC(=O)NC4=O)c(F)c3)C2)CC1 [compound 165],< 10 nM,< 10 nM,++++ (1000≤Fold),–,–
Cc1cc(-c2cnc3[nH]cc(-n4cc(C5CC5)cn4)c3n2)cc(C)c1C1=CCN(CC2CN(c3ccc(N4CCC(=O)NC4=O)c(F)c3)C2)CC1 [compound 160],< 10 nM,< 10 nM,++++ (1000≤Fold),–,–
Cc1cc(-c2cnc3[nH]cc(-c4ccc(C(=O)N(C)C)cc4)c3n2)cc(C)c1C1=CCN(CC2CN(c3ccc(C(=O)NC4CCC(=O)NC4=O)cn3)C2)CC1 (stereo not shown) [compound 089],< 10 nM,–,++++ (1000≤Fold),–,–
Cc1cc(N2CC(CN3CC=C(c4c(C)cc(-c5cnc6[nH]cc(-c7cnn(C8CCN(CC(F)F)CC8)c7)c6c5)cc4C)CC3)C2)ccc1N1CCC(=O)NC1=O [compound 110],< 10 nM,–,–,4070 ng·h/mL,12.4 nM
Cc1cc(-c2cnc3[nH]cc(-c4ccc(C(=O)N(C)C)cc4)c3c2)cc(C)c1C1=CCN(CC2CN(C(=O)c3ccc(Cl)c(N4CCC(=O)NC4=O)c3)C2)CC1 [compound 130],< 10 nM,–,++++ (1000≤Fold),–,–
COCCCN(C)C(=O)c1ccc(-c2c[nH]c3ncc(-c4cc(C)c(C5=CCN(CC6CN(c7ccc(N8CCC(=O)NC8=O)c(C)c7)C6)CC5)c(C)c4)cc23)cc1 [compound 109],< 10 nM,< 10 nM,++++ (1000≤Fold),–,–
Cc1cc(N2CC(C(C)N3CC=C(c4c(C)cc(-c5cnc6[nH]cc(-c7ccc(C(=O)N(C)C)cc7)c6n5)cc4C)CC3)C2)ccc1N1CCC(=O)NC1=O (stereo not shown) [compound 042],< 10 nM,–,++++ (1000≤Fold),–,–
COc1ccc(C(=O)N2CC(N3CC=C(c4c(C)cc(-c5cnc6[nH]cc(-c7ccc(C(=O)N(C)C)cc7)c6n5)cc4C)CC3)C2)cc1N1CCC(=O)NC1=O [compound 061],< 10 nM,–,++++ (1000≤Fold),–,–
Cc1cc(-c2cnc3[nH]cc(-c4ccc(C(=O)N(C)C)cc4)c3c2)cc(C)c1C1=CCN(CC2CN(c3ccc(N4CCC(=O)NC4=O)c(Cl)c3)C2)CC1 [compound 142],< 10 nM,< 10 nM,–,–,–
Cc1cc(-c2c[nH]c3ncc(-c4cc(C)c(C5=CCN(CC6CN(c7ccc(N8CCC(=O)NC8=O)c(F)c7)C6)CC5)c(C)c4)nc23)ccc1C(=O)N(C)C [compound 146],< 10 nM,–,++++ (1000≤Fold),–,–
Cc1ccn2c(-c3c[nH]c4ncc(-c5cc(C)c(C6=CCN(CC7CN(c8ccc(N9CCC(=O)NC9=O)c(F)c8)C7)CC6)c(C)c5)nc34)cnc2c1 [compound 168],< 10 nM,< 10 nM,–,–,–
CCc1nc(C)c(-c2c[nH]c3ncc(-c4cc(C)c(C5=CCN(CC6CN(c7ccc(N8CCC(=O)NC8=O)c(F)c7)C6)CC5)c(C)c4)nc23)s1 [compound 152],< 10 nM,< 10 nM,–,–,–
Cc1cc(-c2cnc3[nH]cc(-c4ccc(C(=O)N(C)C)cc4)c3n2)cc(C)c1C1=CCN(CC2CN(c3cc(F)c(N4CCC(=O)NC4=O)c(F)c3)C2)CC1 [compound 079],< 10 nM,–,++++ (1000≤Fold),–,–
Cc1cc(-c2c[nH]c3ncc(-c4cc(C)c(C5=CCN(CC6CN(c7ccc(C(=O)NC8CCC(=O)NC8=O)cc7)C6)CC5)c(C)c4)nc23)ccc1C(=O)N(C)C (stereo not shown) [compound 028],< 10 nM,< 10 nM,–,–,–
